For assay [1], the system named is rat carotid balloon injury model. As to the kind of experiment: Vascular endothelial thickening inhibiting effect in rat carotid balloon injury model. Type of assay: in vivo. Conditions: oral 50 mg/kg twice daily (hydrochloride), 15 days, aminoguanidine hydrochloride 45 mg/kg twice daily as positive control. Here is the method: vascular endothelial thickening inhibiting effect in rat carotid balloon injury model, which is post-vasodilatory operation restenosis model.
TM-2002 was suspended in sodium carboxymethylcellulose aqueous solution (CMC) (0.5%) using mortar and prepared to the concentration of 12.5 mg/mL using measuring cylinder.
Aminoguanidine hydrochloride (Sigma) was used as positive control, suspended in CMC aqueous solution (0.5%) using mortar in the same manner, and prepare to the concentration of 11.25 mg/mL using measuring cylinder. Each preparation was formed when use it to administer orally coercively using disposable injection and oral sonde with suspending. […]
While testing, the alive and the condition of wound were observed everyday. The body weight was measured once a day from the day before injury to 14 day after balloon injury. The dose of each individuals were calculated by their body weight.
The blood samples were obtained from abdomen vena cava under anesthesia by ether on 15 day after balloon injury. […] The area of intravascular lumen, the area surrounded by internal elastic lamina and the area surrounded by external elastic lamina was calculated using image analyzer (VM-30, Olympus photology).
For each sections (3 region), the area of neointimal, media and neointimal/media rate of blood vessel was calculated from the measured area. […]

Another assay concerns SHR/NDmcr-cp rats. As to the kind of experiment: In vivo endoplasmic reticula stress alleviation, anti-ORP150 immunostaining of kidney. Further details: species or system rat. Conditions: 100 mg/1 kg body weight by diet, 33 weeks aged. Here is the method: Endoplasmic reticula stress alleviation effect by TM-2002 was examined using SHR/NDmcr-cp (Disease Model Cooperative Research Association) rats, which have been known their high blood pressure, hyperglycemia, hyperlipemia, obesity and hyperinsulinemia and renal function disorder while aging, and immunostained utilizing anti-ORP150 antibody. The stained section samples which were used for staining were prepared as following manner; SHR/NDmcr-cp rats which were administered the desired amount of test compound TM-2002 (dose: 100 mg/1 kg body weight) by diet (30 g daily), the rats which were administered no drug and SHR (hypertension) rats and Wistar Kyoto rats (control); kidney tissues of each rat were obtained after the end of drug administration period (33 weeks aged); all of tissues were fixed by Carnoy and embedded in paraffin. The staining of each samples was carried out by Catalyzed Sifnal Amplification(CSA) System (DAKO) according to their protocol. […] The samples were observed by microscopic visualization with optical microscope (Olympus) and analyzed the result. […]

Data on one compound can be found in patent US7645882B2, “Inhibitor of protein modification products formation” (priority 2003, dated 2010).

Turning to `Cc1ncc2c(c1O)C(c1c(C)nn(-c3ccccc3)c1O)OC2` (centres unmarked) [compound 68, 1-(5-hydroxy-3-methyl-1-phenyl-1H-pyrazol-4-yl)-6-methyl-1,3-dihydro-furo[3,4-c]pyridin-7-ol], the “intimal thickening inhibiting effect” value in assay [1] is given as “intimal thickening inhibiting effect equal to aminoguanidine group”. The “ORP150 positive staining site / ER stress in kidney” value with SHR/NDmcr-cp rats is “decrease of positive staining site and suppressing ER stress”.
